According to ChEMBL document CHEMBL6109077, “Design, synthesis and in vitro validation of bivalent binders of SARS-CoV-2 spike protein: Obeticholic, betulinic and glycyrrhetinic acids as building blocks” (Bioorg Med Chem, 2025):
The source made the active and inactive calls. No cut-off for these calls is given here.

molecular target: Glycoprotein (Vesicular stomatitis Indiana virus (strain San Juan) (VSIV)) (UniProt P03522); test: Inhibition of glycoprotein in pseudotyped Vesicular stomatitis virus infected in 293T/ACE2 cells assessed as reduction in viral entry at 10 uM preincubated with virus for 1 hr followed by cell infection and measured after 48 hrs by bright-glo luciferase reporter gene assay; format: cell-based; conditions: time 49.0 hrs
Sequence (P03522 whole entry): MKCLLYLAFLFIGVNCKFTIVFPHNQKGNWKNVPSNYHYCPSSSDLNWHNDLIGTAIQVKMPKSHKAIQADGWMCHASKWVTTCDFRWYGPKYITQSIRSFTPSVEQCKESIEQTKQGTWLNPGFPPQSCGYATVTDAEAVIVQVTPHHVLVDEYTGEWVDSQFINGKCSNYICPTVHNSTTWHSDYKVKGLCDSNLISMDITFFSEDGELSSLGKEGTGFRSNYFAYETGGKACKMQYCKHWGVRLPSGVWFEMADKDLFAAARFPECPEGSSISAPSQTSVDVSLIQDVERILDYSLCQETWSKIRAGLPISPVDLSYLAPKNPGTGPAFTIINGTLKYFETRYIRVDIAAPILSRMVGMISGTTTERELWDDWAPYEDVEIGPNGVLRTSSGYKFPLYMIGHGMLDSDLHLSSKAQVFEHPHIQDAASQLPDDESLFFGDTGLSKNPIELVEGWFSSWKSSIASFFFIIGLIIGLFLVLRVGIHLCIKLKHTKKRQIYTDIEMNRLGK

Question: C=C(C)[C@@H]1CC[C@]2(C(=O)OC)CC[C@@]3(C)[C@@H]4CC[C@@H]5[C@H](CC[C@H](OC(=O)CCCCc6cn(CCCCCCNC(=O)CC[C@@H](C)[C@H]7CC[C@H]8[C@@H]9[C@H](O)[C@H](CC)[C@@H]%10C[C@H](O)CC[C@]%10(C)[C@H]9CC[C@]78C)nn6)C5(C)C)[C@H]4CC[C@@H]3[C@@H]12 was tested. Which inhibition did it give?
Answer: inactive

Question: Which inhibition does the source give for C=C(C)[C@@H]1CC[C@]2(C(=O)OC)CC[C@]3(C)[C@H](CC[C@@H]4[C@@]5(C)CC[C@H](OC(=O)CCCCCCCCNC(=O)CC[C@@H](C)[C@H]6CC[C@H]7[C@@H]8[C@H](O)[C@H](CC)[C@@H]9C[C@H](O)CC[C@]9(C)[C@H]8CC[C@]67C)C(C)(C)[C@@H]5CC[C@]43C)[C@@H]12 here?
Answer: inactive

Question: C=C(C)[C@@H]1CC[C@]2(C(=O)OC)CC[C@]3(C)[C@H](CC[C@@H]4[C@@]5(C)CC[C@H](OC(=O)CCCNC(=O)CC[C@@H](C)[C@H]6CC[C@H]7[C@@H]8[C@H](O)[C@H](CC)[C@@H]9C[C@H](O)CC[C@]9(C)[C@H]8CC[C@]67C)C(C)(C)[C@@H]5CC[C@]43C)[C@@H]12 was tested. Which inhibition did it give?
Answer: inactive

Question: Which inhibition does the source give for CC[C@H]1[C@@H](O)[C@@H]2[C@H](CC[C@]3(C)[C@@H]([C@H](C)CCC(=O)NCCCCCCn4cc(CCCCC(=O)O[C@H]5CC[C@H]6[C@@H](CC[C@]7(C)[C@@H]6C(=O)C=C6[C@@H]8C[C@@](C)(C(=O)OC)CC[C@]8(C)CC[C@]67C)C5(C)C)nn4)CC[C@@H]23)[C@@]2(C)CC[C@@H](O)C[C@@H]12 here?
Answer: inactive
